Assay results reported in US20030224024A1, “Compositions comprising cyclopentane derivatives and their use” (priority 2002, published 2003).

Columns and labels:
isolated stratum corneum [1] = assay: Keratolytic power, Test 2: counting corneocytes released from patches of isolated stratum corneum; assay type: cell-based; settings: 1% by weight solution in PBS + 0.1% Triton X100, pH 7.4, 37° C., 24 hours; for number of liberated corneocytes per microlitre, Sample 1 (3 tests): Test 2, Sample 1, average over three tests; for number of liberated corneocytes per microlitre, Sample 2 (3 tests): Test 2, Sample 2, average over three tests; for number of liberated corneocytes per microlitre, Average: Test 2, average of Samples 1 and 2
Experimental: (§1) The keratolytic power of a number of compounds of the disclosure was studied. This test comprises counting corneocytes released following incubation of patches of isolated stratum corneum in the presence of the test compounds.
(§2) Stratum corneum isolated by trypsin/heat from surgical plasties was used. A number of different stratum corneum samples were used. Discs of 4 mm in diameter were punched out and placed at the bottom of a 96-well plate.
A 1% by weight solution of the compound of Example 1 or salicylic acid, was prepared in a PBS buffer supplemented with 0.1% of Triton X100. The pH of the solution was adjusted to 7.4.
50 microlitres of test solution or of control solution (PBS buffer supplemented with 0.1% of Triton X100) were added to each well. Incubation was carried out at 37° C. with stirring for 24 hours.
(§3) 10 microlitres of solution were then withdrawn and were placed in a Malassez cell. The liberated corneocytes were counted under the microscope.
The results obtained are as follows, expressed as the number of liberated corneocytes per microlitre. Corneocyte fragments were not counted.

isolated stratum corneum [2] = assay: Keratolytic power, Test 1: counting corneocytes released from patches of isolated stratum corneum; assay type: cell-based; settings: 1% by weight solution in PBS + 0.1% Triton X100, pH 7.4, 37° C., 24 hours
Experimental: as §1, §2
A 1% by weight solution of the compound of Example 1, or (1R,2R)-3-oxo-2-(2Z)pentylcyclopentaneacetic acid (comparative), was prepared in a PBS buffer supplemented with 0.1% of Triton X100. The pH of the solution was adjusted to 7.4.
50 microlitres of test solution or of control solution (PBS buffer supplemented with 0.1% of Triton:X100) were added to each well. Incubation was carried out at 37° C. with stirring for 24 hours.
as §3
The results obtained are as follows, expressed as the number of liberated corneocytes per microlitre, averaged over three tests. Corneocyte fragments were not counted.

Question: What does the source list for `CC/C=C\C[C@H]1C(=O)CC[C@@H]1CC(=O)O` (racemic) [Example 1, (±)(1R,2R)-3-oxo-2-[(2Z)-2-pentenyl]cyclopentaneacetic acid]?
Answer: number of liberated corneocytes per microlitre, Sample 1 (3 tests) (isolated stratum corneum [1]): 80 ± 4 liberated corneocytes per microlitre; number of liberated corneocytes per microlitre, Sample 2 (3 tests) (isolated stratum corneum [1]): 64 ± 11 liberated corneocytes per microlitre; number of liberated corneocytes per microlitre, Average (isolated stratum corneum [1]): 72 ± 7 liberated corneocytes per microlitre; number of liberated corneocytes per microlitre, Average (3 tests per sample, 3 different samples) (isolated stratum corneum [2]): 15 ± 5 liberated corneocytes per microlitre

Question: With `CC/C=C\C[C@H]1C(=O)CC[C@@H]1CC(=O)O` [Comparative, (1R,2R)-3-oxo-2-(2Z)pentylcyclopentaneacetic acid] as the compound, how does the “number of liberated corneocytes per microlitre, Average (3 tests per sample, 3 different samples)” value (isolated stratum corneum [2]) read?
Answer: 12 ± 4 liberated corneocytes per microlitre

Question: What does the source list for `O=C(O)c1ccccc1O` [Salicylic acid, salicylic acid]?
Answer: number of liberated corneocytes per microlitre, Sample 1 (3 tests) (isolated stratum corneum [1]): 33 ± 20 liberated corneocytes per microlitre; number of liberated corneocytes per microlitre, Sample 2 (3 tests) (isolated stratum corneum [1]): 21 ± 8 liberated corneocytes per microlitre; number of liberated corneocytes per microlitre, Average (isolated stratum corneum [1]): 27 ± 14 liberated corneocytes per microlitre
